{"source": "patent US7722863B2", "about": "“Use of granzyme b as an hsp70/hsp70 peptide dependent inducer of apoptosis in tumor cells” (Multimmune GmbH, priority 2002, dated 2010)", "format_in_all_cases": "cell-based, human", "key": {"[1]": {"tested_on": "CX− tumor cells", "assay": "DAPI staining of nuclear DNA fragmentation", "details": "24 h, camptothecin 4 μg/ml or granzyme B 6 ng/ml", "description": "(§1) DAPI-staining: Methanol/aceton fixed cells (0.1×10^6 cells/100 μl) were incubated with 0.5 μg/μl 4,6-diamino-2-phenylindole (DAPI) in PBS/glycerol (3:1), for 15 min in the dark. Following washing in PBS the cells were mounted with Fluorescent Mounting Medium (Dako, Glostrup, Denmark) and than analysed for fluorescence using a Zeiss model Axioscop 2 scanning microscope (Zeiss Jena, Germany) equipped with a 40× objective and standard filters. Apoptosis was visualized with DAPI-staining in 50 cells, each. Images were treated by multiplicative shading correction using software Axiovision (Zeiss Vision Jena, Germany)."}, "[2]": {"tested_on": "Colo+ tumor cells", "assay": "DAPI staining of nuclear DNA fragmentation", "details": "24 h, camptothecin 4 μg/ml or granzyme B 6 ng/ml", "description": "as §1"}, "[3]": {"tested_on": "Hsp70 membrane-negative CX− tumor subline", "assay": "Cell surface binding and uptake of granzyme B (fluorescence microscopy, flow cytometry)", "details": "data not shown", "description": "(§2) Cells (0.5×10^6) were fixed in paraformaldehyde (1% PFA in PBS) for 10 min, and permeabilized in PBS containing BSA (0.5%), NaN3 (0.1%), and saponin (0.1%). Then permeabilized cells were incubated either with the granzyme B-phycoerythrin conjugated monoclonal antibody HC2-PE (IgG1; Hölzel Diagnosbka, Cologne, Germany) with an isotype-matched IgG1 control antibody, at 4° C. for 1 h, in the dark. Following washing cells were analysed on a FACSCalibur instrument (Becton Dickinson, Heidelberg, Germany).\n(§3) Stock solutions of camptothecin (4 mg/ml, Sigma, Munich, Germany) were diluted in DMSO and stored at 4° C. in the dark. Granzyme B (6 ng/ml, Hölzel Diagnostics, Cologne, Germany) solutions were freshly prepared directly before usage. Exponentially growing cells (0.5-1.5×10^6/ml) were incubated either with camptothecin at a final concentration of 4 μg/ml or with purified, enzymatically active granzyme B (10 ng/ml, 1 μg/ml, 2 μg/ml; 4 μg/ml) (Shi et. al. (2000) Methods in Enzymology 322, 125) for 10 min, and 30 min either at 4° C. or at 37° C. After washing in RPMI-1640 medium binding and uptake was determined in nonpermeabilized and permeabilized tumor cells by flow cytometry and fluorescence microscopy on a Axioscop 25 scanning microscope (Zeiss, Jena, Germany) equipped with a 40× objective and standard filters. Images were treated by multiplicative shading correction using the software Axiovison (Zeiss Vison, Jena, Germany). Granzyme B was visualized in red by using the HC2-PE antibody.\n(§4) The preceding findings posed the question whether membrane-bound Hsp70 might enable specific binding and entry of granzyme B into the cytosol. […] A light microscopical analysis of untreated CX+ and Colo+ cells (control) at 4° C. versus 37° C. is shown in the upper row of each panel (FIG. 2A). The corresponding immunofluorescence microscopy of the cells at 4° C. and 37° C. is illustrated below (control). […] (data not shown). […] (FIG. 2B, upper graph). […] However, even at the highest concentration of 4 μg/ml, granzyme B was internalized much more pronounced by Hsp70 membrane-positive as compared to Hsp70-negative tumor cells (CX−/Colo−). Potential ion channels formed by Hsp70 may play a role in the mechansim of selective granzyme B uptake in Hsp70 membrane-positive tumor cells. Indeed, a particular ion conductance pathway was observed after incorporation of vesicles derived from purified phospholipids of Hsp70 membrane-positive (CX+) tumor sublines. This was not seen in vesicles obtained from Hsp70 membrane-negative (CX−) tumor cells (data not shown)."}, "[4]": {"tested_on": "Hsp70 membrane-negative Colo− tumor subline", "assay": "Cell surface binding and uptake of granzyme B (fluorescence microscopy, flow cytometry)", "details": "data not shown", "description": "as §2, §3, §4"}, "[5]": {"tested_on": "Hsp70 membrane-positive Colo+ tumor subline", "assay": "Cell surface binding and uptake of granzyme B (fluorescence microscopy, flow cytometry)", "description": "as §2, §3, §4"}}}
{"substance": "granzyme B", "values": [{"measurement": "nuclear DNA fragmentation (DAPI)", "setting": "[1]", "result": "no DNA fragmentation was observed"}, {"measurement": "nuclear DNA fragmentation (DAPI)", "setting": "[2]", "result": "DNA fragmentation was detected"}, {"measurement": "granzyme B cell surface binding (immunofluorescence)", "setting": "[3]; 4° C.", "result": "either exhibited any granzyme B cell surface binding at 4 °C"}, {"measurement": "granzyme B uptake (immunofluorescence)", "setting": "[3]; 37° C.", "result": "nor uptake at 37 °C"}, {"measurement": "granzyme B cell surface binding (immunofluorescence)", "setting": "[4]; 4° C.", "result": "either exhibited any granzyme B cell surface binding at 4 °C"}, {"measurement": "granzyme B uptake (immunofluorescence)", "setting": "[4]; 37° C.", "result": "nor uptake at 37 °C"}, {"measurement": "granzyme B uptake, flow cytometry of permeabilized cells", "setting": "[5]; 1 μg/ml granzyme B, 30 min, 37° C.", "result": "faint shift of the granzyme B peak to the right"}, {"measurement": "granzyme B uptake, flow cytometry of permeabilized cells", "setting": "[5]; 2 μg/ml and 4 μg/ml granzyme B", "result": "dose-dependent increase in granzyme B uptake"}, {"measurement": "granzyme B cell surface binding (immunofluorescence)", "setting": "[5]; 15 min at 4° C., granzyme B 2 μg/ml", "result": "typical cell surface staining, was detected"}, {"measurement": "granzyme B uptake, cytoplasmic staining (immunofluorescence)", "setting": "[5]; temperature shift 4° C. to 37° C., 30 min", "result": "resulted in uptake of granzyme B"}]}
